Measurements: patent US11116757B2 (priority 2015, dated 2021)
Like-named read-outs stand apart in the source and are kept apart here.

Target: DCN1-UBC12 interaction (Homo sapiens (Human), UniProt Q96GG9)
Experiment: biochemical
Assay type: binding
[1] = Table 6, commercial compounds, read-out: TR-FRET IC50
[2] = Table 4, commercial compounds, read-out: TR-FRET IC50
[3] = Table 7, commercial compounds, read-out: TR-FRET IC50

Sequence of DCN1-UBC12 interaction (Q96GG9 60-248 limits assumed): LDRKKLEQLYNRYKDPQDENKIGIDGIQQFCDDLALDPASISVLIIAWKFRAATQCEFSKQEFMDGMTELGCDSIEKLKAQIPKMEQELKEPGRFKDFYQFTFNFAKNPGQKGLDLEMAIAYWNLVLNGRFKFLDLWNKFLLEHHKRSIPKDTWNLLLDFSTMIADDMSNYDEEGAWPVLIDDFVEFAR

| Molecule | IC50 (read-out: TR-FRET IC50) [µM] | other results |
| --- | --- | --- |
| CCOc1ccccc1NC(=O)N(Cc1ccc(C)o1)C1CCN(C(C)=O)CC1 [B88] | > 67.6 | – |
| CC(C)c1c(C(=O)N2CCN(C(C)C)CC2)cnn1-c1nccc(-c2cccs2)n1 [E62] | – | IC50 [1]: > 77 µM |
| CCCCN1CCC(N(Cc2ccc3c(c2)OCO3)C(=O)Nc2ccc(F)c(C(F)(F)F)c2)CC1 [A114] | 2.35 | – |
| CCC(CC)N1CCC(N(Cc2ccccc2)C(=O)Nc2cc(F)cc(C(F)(F)F)c2)CC1 [A120] | 0.616 | – |
| CCCC1CCC(N(Cc2ccccc2)C(=O)Nc2cccc(C(F)(F)F)c2)CC1 (stereo not shown) [A232] | > 38.7 | – |
| O=C(c1ccc(Cl)c(Cl)c1)N1CCC(c2nc3ccccc3s2)CC1 [D7] | 19.5 | – |
| CCCCCCc1ccc(NC(=O)N(Cc2ccccc2)C2CCN(C(C)CCC)CC2)cc1 (stereo not shown) [A19] | 0.116 | – |
| CCCN1CCC(NC(=O)Nc2ccc(C)c(Cl)c2)CC1 [B34] | > 55.5 | – |
| C=CCN(CC=C)C(=O)c1cnn(-c2nccc(-c3cccs3)n2)c1COC [E39] | – | IC50 [1]: > 67.6 µM |
| CC(=O)N1CCC(N(Cc2ccco2)C(=O)Nc2cccc(C)c2)CC1 [B72] | > 67.6 | – |
| C#CCCCN1CCC(N(Cc2ccccc2NC(=O)CC)C(=O)Nc2ccc(Cl)c(Cl)c2)CC1 [A200] | > 15 | – |
| O=C(Nc1cc(F)cc(C(F)(F)F)c1)N(Cc1ccccc1)C1CCN(Cc2cccc(Oc3ccccc3)c2)CC1 [A217] | > 23.9 | – |
| O=C(Nc1ccc(F)c(Cl)c1)C1CCN(C(=O)c2ccc(Cl)cc2)CC1 [C66] | – | IC50 [2]: > 75.6 µM |
| CCCC(C)N1CCC(N(Cc2ccccc2)C(=O)Nc2ccc(OC)cc2C)CC1 (stereo not shown) [A275] | > 68.6 | – |
| CCCC(C)N1CCC(N(Cc2ccccc2)C(=O)Nc2ccc(Cl)c(Cl)c2)CC1 (stereo not shown) [A46] | 0.257 | – |
| CCCC(C)N1CCC(N(Cc2ccc3c(c2)OCO3)C(=O)Nc2cc(F)cc(C(F)(F)F)c2)CC1 (stereo not shown) [A51] | 0.273 | – |
| COc1ccc(C(=O)N2CCC(C(=O)Nc3ccc(F)c(Cl)c3)CC2)cc1 [C16] | – | IC50 [2]: > 67.6 µM |
| Cc1ccc(NC(=O)C2CCN(C(=O)c3ccc(Cl)cc3)CC2)cc1Cl [C6] | – | IC50 [2]: 38.1 µM |
| CCCC(C)N1CCC(N(Cc2ccccc2)C(=O)Nc2ccc(Oc3ccc(Cl)cc3)cc2)CC1 (stereo not shown) [A22] | 0.131 | – |
| Cc1cccc(NC(=O)NC2CCN(Cc3ccccc3)CC2)c1 [B57] | > 67.6 | – |
| O=C(c1cccc(F)c1)N1CCC(c2nc3ccccc3s2)CC1 [D12] | 31.4 | – |
| CCOC(=O)CCNC(=O)c1cnn(-c2ncc(C)c(-c3cccs3)n2)c1C [E56] | – | IC50 [1]: > 67.6 µM |
| CCN(CC)CCNC(=O)c1cnn(-c2nccc(-c3cccs3)n2)c1C1CC1 [E36] | – | IC50 [1]: > 67.6 µM |
| CCCC(C)N1CCC(N(Cc2ccccc2)C(=O)Nc2cccc(C(C)C)c2)CC1 (stereo not shown) [A33] | – | IC50 (TR-FRET IC50): 0.2 µM |
| O=C(c1ccc(Br)cc1)N1CCC(c2nc3ccccc3s2)CC1 [D9] | 21.8 | – |
| CC(=O)N1CCN(C(=O)c2cnn(-c3ncc(C)c(-c4cccs4)n3)c2C2CC2)CC1 [E50] | – | IC50 [1]: > 67.6 µM |
| CCCC(C)N1CCC(N(Cc2ccccc2)C(=O)Nc2ccc(F)cc2Br)CC1 (stereo not shown) [A302] | > 86.9 | – |

| Molecule | IC50 (read-out: TR-FRET IC50) [µM] | other results |
| --- | --- | --- |
| CCCC(C)N1CCC(N(Cc2ccccc2)C(=O)Nc2ccccc2OC(F)(F)F)CC1 (stereo not shown) [A191] | 44.9 | – |
| CCN(CC)CCN(CC)C(=O)c1cnn(-c2ncc(C)c(-c3cccs3)n2)c1COC [E16] | – | IC50 [1]: 33.3 µM |
| C#CCCCN1CCC(N(Cc2ccccc2NC(=O)CCl)C(=O)Nc2cccc(C(F)(F)F)c2)CC1 [A253] | > 6.89 | – |
| CCCC(C)N1CCC(N(Cc2ccccc2)C(=O)Nc2c(C)cccc2C)CC1 (stereo not shown) [A259] | > 62.4 | – |
| CCOC(=O)N1CCN(C(=O)c2cnn(-c3ncc(C)c(-c4cccs4)n3)c2C)CC1 [E12] | – | IC50 [1]: 28.3 µM |
| CC1CN(Cc2ccccc2)CCC1N(C)C(=O)NC1C(=O)N(c2ccccc2)N(C)C1C (stereo not shown) [B27] | > 28.1 | – |
| CCCC(C)N1CCC(N(Cc2ccccc2)C(=O)Nc2cccc(OC(C)C)c2)CC1 (stereo not shown) [A132] | 3.17 | – |
| CCCC(C)N1CCC(N(Cc2ccccc2)C(=O)Nc2cccc(S(F)(F)(F)(F)F)c2)CC1 (stereo not shown) [A25] | 0.155 | – |
| FC(F)(F)c1cccc(CNC2CCN(Cc3ccccc3)CC2)c1 [B32] | > 55.3 | – |
| CCCC(C)N1CCC(N(Cc2ccccc2)C(=O)Nc2ccc(OC(F)(F)F)cc2)CC1 (stereo not shown) [A32] | 0.191 | – |
| O=C(Nc1ccc(F)c(Cl)c1)C1CCN(C(=O)c2ccc(Br)cc2)CC1 [C70] | – | IC50 [2]: > 83.8 µM |
| Cc1nn(C)c2c1C(c1cccc(F)c1)C(NC(=O)c1ccc(Cl)cc1)C(=O)N2 (stereo not shown) [F10] | – | IC50 [3]: > 67.6 µM |
| CCCCN1CCC(N(Cc2ccccc2)C(=O)Nc2ccc(F)c(Cl)c2)CC1 [A89] | 1.09 | – |
| CC(c1ccc2c(c1)OCO2)N1CCC(N(Cc2ccccc2)C(=O)Nc2cc(F)cc(C(F)(F)F)c2)CC1 (stereo not shown) [A128] | 2.39 | – |
| CCCN1CCC(N(CC2CCCCC2)C(=O)Nc2cccc(C(F)(F)F)c2)CC1 [A92, 1-(Cyclohexylmethyl)-1-(1-Propylpiperidin-4-yl)-3-(3-(Trifluoromethyl)Phenyl)Urea] | 1.23 | – |
| O=C(Nc1cc(F)cc(C(F)(F)F)c1)N(Cc1ccccc1)C1CCN(CCCc2ccccc2)CC1 [A133] | 3.21 | – |
| COc1ccc(C2c3c(C)nn(C)c3NC(=O)C2NC(=O)c2ccc(Cl)cc2)cc1F (stereo not shown) [F31] | – | IC50 [3]: > 67.6 µM |
| O=C(Nc1cccc(C(F)(F)F)c1)NC1CCN(C(=O)c2ccccc2)CC1 [A306, 1-(1-Benzoylpiperidin-4-yl)-3-(3-(Trifluoromethyl)Phenyl)Urea] | > 98.1 | – |
| 1-Benzyl-1-(1-(4-Fluorobenzyl)Piperidin-4-yl)-3-(3-(Trifluoromethyl)Phenyl)Urea [A171] | 12.7 | – |
| O=C(Nc1cccc(C(F)(F)F)c1)NC1CCN(Cc2ccccc2Cl)CC1 [A292, 1-(1-(2-Chlorobenzyl)Piperidin-4-yl)-3-(3-(Trifluoromethyl)Phenyl)Urea] | > 77.3 | – |
| CCCC(C)N1CCC(N(Cc2ccccc2)C(=O)Nc2ccccc2F)CC1 (stereo not shown) [A295] | > 81.1 | – |
| COc1cccc(NC(=O)NC2CCN(C(C)C)CC2)c1 [B60] | > 67.6 | – |
| CCOc1ccccc1NC(=O)N(C(C)C)C1CCN(C(C)=O)CC1 [B67] | > 67.6 | – |
| CCCC(C)N1CCC(N(Cc2ccccc2)C(=O)Nc2ccc3c(c2)CCC3)CC1 (stereo not shown) [A8] | 0.0767 | – |
| COc1ccc(CN(C(=O)Nc2ccccc2C(F)(F)F)C2CCN(C(C)=O)CC2)cc1 [B85] | > 67.6 | – |
| O=C(Nc1cccc(Br)c1)C1CCN(C(=O)c2cccc(Cl)c2)CC1 [C3] | – | IC50 [2]: 22.4 µM |
| CCCC(C)N1CCC(N(Cc2ccccc2)C(=O)Nc2cccc(Cl)c2)CC1 (stereo not shown) [A35] | – | IC50 (TR-FRET IC50): 0.203 µM |

| Molecule | IC50 (read-out: TR-FRET IC50) [µM] | other results |
| --- | --- | --- |
| CC(=O)N1CCC(N(Cc2ccco2)C(=O)Nc2cccc(C(F)(F)F)c2)CC1 [B10] | 20.2 | – |
| CCN1CCN(C(=O)c2cnn(-c3nccc(-c4cccs4)n3)c2C2CC2)CC1 [E14] | – | IC50 [1]: 29.9 µM |
| Cc1ccc(NC(=O)C2CCN(C(=O)c3ccccc3C)CC2)cc1C [C22] | – | IC50 [2]: > 67.6 µM |
| CC(=O)N1CCC(N(Cc2ccco2)C(=O)Nc2ccc(Br)c(C)c2)CC1 [B18] | 64.1 | – |
| O=C(Nc1cccc(C(F)(F)F)c1)C1CCN(C(=O)c2ccc(F)cc2)CC1 [C2] | – | IC50 [2]: 8.84 µM |
| COCCn1ccc(NC(=O)NC2CCN(Cc3ccccc3)CC2)n1 [B35] | > 55.9 | – |
| CCc1ccccc1NC(=O)C1CCN(C(=O)c2ccc(F)cc2)CC1 [C67] | – | IC50 [2]: > 75.6 µM |
| CCCCN1C(C)(C)CC(N(Cc2ccccc2)C(=O)Nc2cccc(C(F)(F)F)c2)CC1(C)C [A188] | 34.3 | – |
| CCCC(C)N1CCC(N(Cc2ccccc2)C(=O)Nc2cc(Cl)c(Cl)cc2F)CC1 (stereo not shown) [A78] | 0.801 | – |
| O=C(Nc1cccc(F)c1)C1CCN(C(=O)c2cnn(-c3ccccc3)c2-n2cccc2)CC1 [C50] | – | IC50 [2]: > 67.6 µM |
| CCCC(C)N1CCC(N(Cc2ccccc2)C(=O)Nc2ccc(Cl)cc2)CC1 (stereo not shown) [A13] | – | IC50 (TR-FRET IC50): 0.083 µM |
| CCN1CCC(N(Cc2ccc(F)cc2)C(=O)Nc2ccccc2Cl)CC1 [B97] | > 67.6 | – |
| O=C(Nc1cccc(C(F)(F)F)c1)NC1CCN(Cc2ccccc2F)CC1 [A238, 1-(1-(2-Fluorobenzyl)Piperidin-4-yl)-3-(3-(Trifluoromethyl)Phenyl)Urea] | > 49.4 | – |
| CCCC(C)N1CCC(N(Cc2ccccc2)C(=O)Nc2cccc(F)c2F)CC1 (stereo not shown) [A162] | 8.22 | – |
| Cc1nn(C)c2c1C(c1ccc(Br)cc1)C(NC(=O)c1ccc(Cl)cc1)C(=O)N2 (stereo not shown) [F12] | – | IC50 [3]: > 67.6 µM |
| CCCOc1cc(C2c3c(C)nn(C)c3NC(=O)C2NC(=O)c2ccc(Cl)cc2)ccc1OC (stereo not shown) [F9] | – | IC50 [3]: > 67.6 µM |
| CCCC(C)N1CCC(N(Cc2ccccc2)C(=O)Nc2ccc(OC)cc2)CC1 (stereo not shown) [A158] | 7.67 | – |
| CCCC(C)N1CCC(N(Cc2ccccc2)C(=O)Nc2ccc(C3CCCCC3)cc2)CC1 (stereo not shown) [A110] | 2.21 | – |
| CCCCN1CCC(N(Cc2ccccc2)C(=O)Nc2cccnc2)CC1 [A280] | > 70.1 | – |
| CCCC(C)N1CCC(N(Cc2ccccc2)C(=O)Nc2ccccc2CC)CC1 (stereo not shown) [A270] | > 67.3 | – |
| Cc1ccc(C(=O)N2CCC(c3nc4ccccc4s3)CC2)cc1 [D3] | 14.7 | – |
| CCCCCN1CCC(N(Cc2ccccc2)C(=O)Nc2cc(F)cc(C(F)(F)F)c2)CC1 [A124] | 1.59 | – |
| COc1ccc(C2c3c(C)nn(C)c3NC(=O)C2NC(=O)c2ccc(OC)c(OC)c2)cc1F (stereo not shown) [F20] | – | IC50 [3]: > 67.6 µM |
| CCCC(C)N1CCC(N(Cc2ccccc2)C(=O)Nc2cccc(Cl)c2F)CC1 (stereo not shown) [A62] | 0.385 | – |
| CCC1CN(C(=O)N2CCC(C(=O)Nc3cccc(OC)c3)CC2)c2ccccc2O1 (stereo not shown) [C54] | – | IC50 [2]: > 67.6 µM |
